Results from US20060160906A1, “Polyamine analogs as therapeutic agents for ocular diseases” (priority 2004, published 2006).
Entries after “also recorded” stand apart in the source; their conditions may differ.

What was measured:
[1] = Tolerability of intraperitoneal injections in mice; assay type: in vivo
[2] = system: retinal function (ERG a- and b-wave amplitudes); assay: Retinal function assessed by electroretinograms (ERG); assay type: in vivo, C57BL/6 mice
Description: Adult female C57BL/6 mice were given an intravitreous injection of 2, 4, or 20 μg of CGC-11144 in one eye and an injection of vehicle in the fellow eye and after 3 days ERGs were recorded as previously described (Okoye et al., J. Neuosci. 23: 4164-4172 (2003)). ERGs were also performed after daily periocular injections of 0.2 mg of CGC-11144 for 2 weeks. Mice were dark-adapted for a standardized 12-hour period overnight and ERG recordings were performed using the Espion ERG Diagnosys (Diagnosys LLL, Littleton, Mass.). All manipulations were done with dim red light illumination. Beginning the same time each morning, mice were anesthetized by ip injection of 25 μl/g body weight of Avertin (Aldrich, Milwaukee, Wis.) diluted 1:39 in PBS. Corneas were anesthetized with a drop of 0.5% proparacaine hydrochloride (Alcon Labs) and pupils were dilated with 1% tropicamide. Mice were placed on a pad heated to 39° C. and platinum electrodes were placed on each cornea after application of gonioscopic prism solution (Alcon Labs). The reference electrode was placed subcutaneously in the anterior scalp between the eyes, and the ground electrode was inserted into the tail. Electrode impedance was balanced for each eye pair measured. The head of the mouse was placed in a standardized position in a Ganzfeld bowl illuminator that assured equal illumination of the eyes. Simultaneous recordings from both eyes were made for eleven intensity levels of white light ranging from −3.00 to +1.40 log cd-s/m^2. The Espion ERG machine measures the ERG response six times at each flash-intensity and records the average value.

[3] = system: retinal structure; assay: Retinal structure in hematoxylin and eosin stained retinal sections; assay type: in vivo, mice
Description: The remaining 10 mice were given an intravitreous injection of 20 μg of CGC-11144 in one eye and vehicle in the fellow eye on days 7 and 10 and then CNV area was measured at each rupture site at 14 days after laser (n=30 in each group). […] After 3 days, ERGs were performed as described in Methods. […] (In FIGS. 3C-3F, retinal sections were stained with hematoxylin and eosin; FIG. 3C and FIG. 3E, 40×; FIG. 3D and FIG. 3F, 100×.)

[4] = system: retinal neovascularization; assay: Oxygen-induced ischemic retinopathy, retinal neovascularization; assay type: in vivo, neonatal C57BL/6 mice; settings: 100 μg CGC-11144, 1 mg CGC-11047, 750 μg CGC-11093
Description: Ischemic retinopathy can be produced in neonatal C57BL/6 mice as described (Smith, L. E et al., Invest. Opthalmol. Vis. Sci. 35: 101-111 (1994)) and serves as a model for retinopathy of prematurity (ROP). Post-natal day 7 (P7) mice and their mothers were placed in an airtight incubator and exposed to an atmosphere of 75±3% oxygen for 5 days. Incubator temperature was maintained at 23±2° C. and oxygen was continuously monitored with a PROOX model 110 oxygen controller (Reming Bioinstruments Co., Redfield, N.Y.). At post-natal day 12, mice were placed back in room air and were given a periocular injection of 3 μl containing 100 μg of CGC-11144 (n=4), 1 mg of CGC-11047 (n=4), 750 μg of CGC-11093 (n=4) or vehicle. On post-natal day 17 (P17) the treated and control mice were euthanized and the amount of retinal neovascularization was measured.
For measurement of retinal neovascularization, eyes were removed and fixed in 2% paraformaldehyde in phosphate buffered saline (PBS) for one hour and rinsed twice in 25% sucrose in PBS. Specimens were incubated in 25% sucrose in PBS overnight and embedded in OCT compound (Miles Diagnostics, Elkhart, Ind.),). 10 μm frozen sections were post-fixed for 15 minutes in 0.5% glutaraldehyde in PBS and washed in PBS. Sections were also histochemically stained with biotinylated Griffonia simplicifolia lectin B4 (GSA, Vector Laboratories, Burlingame, Calif.), which selectively binds to vascular cells. Slides were incubated in methanol/H2O2 for 10 minutes at 4° C., washed with 0.05 M Tris-buffered saline, pH 7.6 (TBS), and incubated for 30 minutes in 10% normal porcine serum. Slides were incubated 2 hours at room temperature with biotinylated GSA and after rinsing with 0.05M TBS, they were incubated with avidin coupled to peroxidase (Vector Laboratories, Burlingame, Calif.) for 30 minutes at room temperature. After being washed for 10 minutes with 0.05M TBS, slides were incubated with diaminobenzidine (Research Genetics, Huntsville, Ala.) to give a brown reaction product.
To perform quantitative assessments, 10 μm frozen serial sections were cut from the iris root on one side of the eye to the iris root on the opposite side of the eye and every tenth section was stained with GSA. Retinas were examined with an Axioskop microscope and images were digitized using a 3 CCD color video camera and a frame grabber. Image-Pro Plus software was used to delineate GSA-stained vascular cells above the internal limiting membrane and the total area of staining was measured.
To investigate the effect of these agents on regression of retinal neovascularization, ischemic retinopathy was induced and left untreated until P17, when the baseline amount of retinal neovascularization was measured in one group of mice. From post-natal days 17 to 20 (P17 to P20) the remainder of the mice were given daily periocular injections of 100 μg of CGC-11144 (n=4), 1 mg of CGC-11047 (n=4), 750 μg of CGC-11093 (n=4) or vehicle. On P20 the mice were euthanized and the amount of retinal neovascularization in the treated and control mice was measured as described above.

[5] = daily periocular 200 μg for 14 days
[6] = intravitreous 2 μg, after 3 days

CCNCCCCNCCCCNCCCCNCCCCNC/C=C/CNCCCCNCCCCNCCCCNCCCCNCC.Cl.Cl.Cl.Cl.Cl.Cl.Cl.Cl.Cl.Cl [CGC-11144]
tolerability ([1]; ip 10 mg/kg twice a week): well tolerated | tolerability ([1]; ip 20 mg/kg twice a week, 2-week treatment period): not well tolerated and several mice died | ERG a- and b-wave amplitudes vs vehicle [2, 5]: normal ERG a- and b-wave amplitudes; also recorded: no difference in mean a-wave or b-wave amplitudes | ERG a-wave amplitudes [2, 6]: only mildly decreased at highest flash intensities | ERG b-wave amplitudes [2, 6]: profoundly reduced at all flash intensities | ERG amplitudes ([2]; intravitreous 10 μg, after 3 days): striking decrease in ERG amplitudes | ERG a- and b-wave amplitudes ([2]; intravitreous 20 μg, after 3 days): dramatically reduced | ERG b-wave amplitudes compared to PBS ([2]; intravitreous 2, 4, or 20 μg, after 3 days, p<0.05): significant decrease in b-wave amplitudes | ERG a-wave amplitudes compared to PBS ([2]; intravitreous 4 or 20 μg, after 3 days, p<0.05): significant decrease in a-wave amplitudes | appearance of retinas [3, 5]: normal-appearing retinas | retinal structure / morphology ([3]; intravitreous 20 μg): markedly disrupted; also recorded: substantial disruption of the morphology of the retina | amount of retinal neovascularization at P20 vs vehicle (regression) ([4]; daily periocular injections P17 to P20): significantly less neovascularization | amount of retinal neovascularization at P17 vs vehicle (suppression) ([4]; periocular injection at P12): significantly less
